From ChEMBL document CHEMBL5260848, “Recent advancements in the development of bioactive pyrazoline derivatives” (Eur J Med Chem, 2020) come the findings set out here.

Values after ≈ are worked out from the molar mass of the structure shown. Counter-ions that a name gives are not always drawn.

The test system of one assay is Mus musculus. Briefly: Antidiabetic activity against albino mouse assessed as reduction in blood glucose level at 0.2 mmol/Kg relative to control. The arrangement: scale not given: the % may be the effect or the level left. The format is functional.
A short description of assay [1]: Antioxidant activity assessed as DPPH radical scavenging activity. The format is functional. On the technique in general: Loss of DPPH colour is used to gauge radical scavenging.
The test system of the next assay is Candida albicans. Briefly: Antifungal activity against Candida albicans. The format is functional.
The subject of a further assay is Aspergillus niger. Briefly: Antifungal activity against Aspergillus niger. The format is functional.
The test system of another assay is Aspergillus clavatus. Briefly: Antifungal activity against Aspergillus clavatus. It is filed as functional.
For assay [2], the target named is T1, Carbonic anhydrase 9 (Homo sapiens, UniProt Q16790). Briefly: Inhibition of human CA9 preincubated for 15 mins by phenol red dye based stopped flow CO2 hydration assay.
A short description of assay [3]: Cytotoxicity against human HPLF cells assessed as reduction in cell viability incubated for 48 hrs by MTT assay. It is filed as functional. (In general: Tetrazolium dyes change colour on reduction, which living cells bring about.)
The nature of assay [4]: Cytotoxicity against human HPC cells assessed as reduction in cell viability incubated for 48 hrs by MTT assay. The format is functional.
In a further assay the test system is HSC-3. Briefly: Cytotoxicity against human HSC-3 cells assessed as reduction in cell viability incubated for 48 hrs by MTT assay. The format is functional.
Assay [5] can be described thus: Cytotoxicity against human HGF cells assessed as reduction in cell viability incubated for 48 hrs by MTT assay. It is filed as functional.
For another assay, the target named is Carbonic anhydrase 12 (Homo sapiens, UniProt O43570). Briefly: Inhibition of human CA12 preincubated for 15 mins by phenol red dye based stopped flow CO2 hydration assay.
Carbonic anhydrase 12, sequence (O43570 whole entry): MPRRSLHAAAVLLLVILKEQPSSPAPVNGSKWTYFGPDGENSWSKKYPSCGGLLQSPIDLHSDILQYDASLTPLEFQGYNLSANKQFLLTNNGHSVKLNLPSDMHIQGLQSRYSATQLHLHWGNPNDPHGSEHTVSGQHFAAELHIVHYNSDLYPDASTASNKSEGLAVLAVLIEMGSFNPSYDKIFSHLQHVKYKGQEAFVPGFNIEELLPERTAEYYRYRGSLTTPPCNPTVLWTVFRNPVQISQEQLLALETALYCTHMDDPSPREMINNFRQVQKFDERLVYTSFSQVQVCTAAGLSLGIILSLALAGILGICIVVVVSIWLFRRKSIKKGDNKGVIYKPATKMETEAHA
A further assay deals with Ca9-22. Briefly: Cytotoxicity against human Ca9-22 cells assessed as reduction in cell viability incubated for 48 hrs by MTT assay. The format is functional.
In the next assay the test system is HSC-2. Briefly: Cytotoxicity against human HSC-2 cells assessed as reduction in cell viability incubated for 48 hrs by MTT assay. The format is functional.
Assay [6] is described as follows: Cytotoxicity against human Panel NCI-58 (58 carcinoma cell lines) cells. It is filed as functional.
Another assay addresses Carbonic anhydrase 4 (Homo sapiens, UniProt P22748). Briefly: Inhibition of human recombinant CA4.
Assay [7] concerns the target T1, Carbonic anhydrase 9.
The target in assay [8] is T2, Carbonic anhydrase 2 (Homo sapiens, UniProt P00918). Briefly: Inhibition of human recombinant CA2.
The target of assay [9] is T3, Carbonic anhydrase 1 (Homo sapiens, UniProt P00915). Briefly: Inhibition of human recombinant CA1.
T3 sequence (P00915 whole entry): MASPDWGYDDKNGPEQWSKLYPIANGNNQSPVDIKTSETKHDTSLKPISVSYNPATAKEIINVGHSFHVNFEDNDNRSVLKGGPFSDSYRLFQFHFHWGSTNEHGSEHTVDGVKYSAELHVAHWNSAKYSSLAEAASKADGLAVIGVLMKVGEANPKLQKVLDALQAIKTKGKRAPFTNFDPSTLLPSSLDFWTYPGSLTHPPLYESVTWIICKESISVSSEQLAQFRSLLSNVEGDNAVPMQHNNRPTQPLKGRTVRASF
The test system of the next assay is Staphylococcus aureus. Briefly: microbe, parasite or virus in culture.
A further assay addresses Acetylcholinesterase (Homo sapiens, UniProt P22303).
For assay [10], the target named is T2, Carbonic anhydrase 2.
Assay [11] has as its target T3, Carbonic anhydrase 1.
For assay [12], the target named is T1, Carbonic anhydrase 9. Briefly: Inhibition of human CA9.

Acetylcholinesterase, sequence (P22303 whole entry): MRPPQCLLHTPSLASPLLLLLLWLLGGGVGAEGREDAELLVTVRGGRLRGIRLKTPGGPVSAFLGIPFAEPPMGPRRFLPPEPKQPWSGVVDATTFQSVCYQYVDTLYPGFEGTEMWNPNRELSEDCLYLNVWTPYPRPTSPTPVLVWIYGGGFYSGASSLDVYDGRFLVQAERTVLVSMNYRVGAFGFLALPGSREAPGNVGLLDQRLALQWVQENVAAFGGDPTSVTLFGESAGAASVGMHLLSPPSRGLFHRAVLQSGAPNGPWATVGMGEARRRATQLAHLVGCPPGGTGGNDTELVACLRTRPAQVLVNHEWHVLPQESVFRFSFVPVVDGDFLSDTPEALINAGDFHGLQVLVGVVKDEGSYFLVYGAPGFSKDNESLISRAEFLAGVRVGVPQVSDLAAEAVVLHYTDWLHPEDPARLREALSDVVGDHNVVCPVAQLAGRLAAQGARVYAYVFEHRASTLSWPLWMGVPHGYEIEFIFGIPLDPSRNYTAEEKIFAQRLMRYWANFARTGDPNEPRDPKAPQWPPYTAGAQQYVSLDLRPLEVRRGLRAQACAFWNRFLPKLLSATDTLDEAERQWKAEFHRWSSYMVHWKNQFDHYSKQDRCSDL
Carbonic anhydrase 4, sequence (P22748 whole entry): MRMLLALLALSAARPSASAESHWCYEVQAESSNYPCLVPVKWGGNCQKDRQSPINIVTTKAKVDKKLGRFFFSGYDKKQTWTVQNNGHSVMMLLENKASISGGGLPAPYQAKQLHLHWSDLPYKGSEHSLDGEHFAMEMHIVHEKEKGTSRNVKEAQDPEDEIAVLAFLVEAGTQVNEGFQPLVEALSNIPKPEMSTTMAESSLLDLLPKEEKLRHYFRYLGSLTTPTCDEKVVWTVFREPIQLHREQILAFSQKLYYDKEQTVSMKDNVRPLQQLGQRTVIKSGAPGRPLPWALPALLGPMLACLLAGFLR

Regarding `Cc1ccc(C2=NN(c3ccc(S(=O)(=O)NC(=O)Nc4ccc(Cl)cc4)cc3)C(c3ccc(F)cc3)C2)cc1` (stereo unspecified), the Activity in the assay on Mus musculus is 16%.
For `Cc1ccc(C2=NN(c3ccc(S(=O)(=O)NC(=O)NC4CCCCC4)cc3)C(c3ccc(F)cc3)C2)cc1` (stereo unspecified), in the assay on Mus musculus, the Activity came to 16%.
One may read the IC50 as the concentration needed to halve the response being measured. `COc1ccc2c(c1)cc(C1CC(c3cc(Br)ccc3O)=NO1)c1nnnn12` (stereo unspecified): the IC50 in [1] was determined as 26.5 µg/mL (≈ 60.2 µM).
Turning to `O=C(c1ccncc1)N1N=C(c2ccc(Br)cc2)CC1c1cc2ccccc2nc1Cl` (stereo unspecified), the MIC against Candida albicans was found to be 12.5 µg/mL (≈ 25.4 µM); in the assay with Aspergillus niger, 12.5 µg/mL (≈ 25.4 µM); with Aspergillus clavatus, 50 µg/mL (≈ 102 µM).
One may read the Ki as the dissociation constant of the complex between target and ligand, obtained from inhibition or displacement. What is called CC50 is the concentration at which the toxic effect on the cells reaches its halfway point. With `NS(=O)(=O)c1ccc(N2N=C(c3ccc(O)cc3)CC2c2ccc(Cl)cc2Cl)cc1` (stereo unspecified), the figures for the Ki at Carbonic anhydrase 9 [2] and on Carbonic anhydrase 12 were 53.5 nM and 6.2 nM, respectively. Also, the CC50 (in assay [3]; in assay [4]; in the assay on HSC-3; in assay [5]; in the assay on Ca9-22; in the assay with HSC-2) was 39300 nM each time.
Usually GI50 stands for the concentration at which growth is held to half of that of the control. The compound `COc1cccc2c1C(=O)c1c(O)c3c(c(O)c1C2=O)C[C@@](O)(C(=O)CO)C[C@@H]3O[C@H]1C[C@H](N)[C@H](O)[C@H](C)O1` [DOXORUBICIN HYDROCHLORIDE] showed a GI50 in assay [6] of 20 nM.
`COc1ccc2c(c1)cc(/C=C/C(=O)c1cc(Br)ccc1O)c1nnnn12`: in [1], the IC50 stood at 25.4 µg/mL (≈ 59.7 µM).
For `CC(=O)N1N=C(c2ccc(OS(N)(=O)=O)cc2)CC1c1ccccc1` (stereo unspecified), the Ki turned out to be 17.7 nM at Carbonic anhydrase 4, 14.8 nM at Carbonic anhydrase 9 [7], 0.4 nM on Carbonic anhydrase 2 [8] and 2460 nM on Carbonic anhydrase 1 [9].
As to `COC(=O)C1N=NN(CC(=O)N2N=C(c3nnn(Cc4ccccc4)c3C)CC2c2ccc(OC)cc2)C1C(=O)OC` (stereo unspecified), the MIC against Staphylococcus aureus turned out to be 3.9 µg/mL (≈ 6.79 µM).
Turning to `CC(=O)N1N=C(c2ccc(OS(N)(=O)=O)cc2)CC1c1cc(Cl)ccc1Cl` (stereo unspecified), the Ki is 17.7 nM at Carbonic anhydrase 4, 14.8 nM on Carbonic anhydrase 9 [7], 0.4 nM on Carbonic anhydrase 2 [8] and 2460 nM on Carbonic anhydrase 1 [9].
`COc1ccc(C2CC(c3ccc(Br)cc3)=NN2c2ccc(S(N)(=O)=O)cc2)c(OC)c1` (stereo unspecified) yielded a Ki at Acetylcholinesterase of 37.7 nM.
With `O=C(c1ccncc1)N1N=C(c2cccc([N+](=O)[O-])c2)CC1c1cc2ccccc2nc1Cl` (stereo unspecified), the MIC in the assay with Candida albicans, in the assay with Aspergillus niger and in the assay on Aspergillus clavatus was 12.5 µg/mL (≈ 27.3 µM) throughout.
Regarding `NS(=O)(=O)c1ccc(N2N=C(c3ccc(O)cc3)CC2c2ccccc2)cc1` (stereo unspecified), the Ki at Carbonic anhydrase 9 [2] came to 53.5 nM; on Carbonic anhydrase 2 [10] it was 412 nM; on Carbonic anhydrase 12, 6.2 nM; on Carbonic anhydrase 1 [11], 317 nM. Besides, the CC50 (in assay [3]; in assay [4]; in the assay on HSC-3; in [5]; in the assay with Ca9-22; with HSC-2) was 39300 nM in each case.
With `COC(=O)C1N=NN(CC(=O)N2N=C(c3ccccc3)CC2c2ccc(OC)cc2)C1C(=O)OC` (stereo unspecified), in the assay with Staphylococcus aureus, the MIC worked out at 3.9 µg/mL (≈ 8.13 µM).
As to `COc1ccc(C2CC(c3ccccc3)=NN2c2ccc(S(N)(=O)=O)cc2)c(OC)c1` (stereo unspecified), affinity on Acetylcholinesterase was put at a Ki of 37.7 nM.
As to `NS(=O)(=O)c1ccc(N2N=C(c3ccc(O)cc3)CC2c2ccc(Cl)cc2)cc1` (stereo unspecified), the values for the Ki on Carbonic anhydrase 9 [2] and on Carbonic anhydrase 12 were 53.5 nM and 6.2 nM, respectively. In addition, the CC50 (in assay [3]; in assay [4]; in the assay on HSC-3; in [5]; in the assay with Ca9-22; in the assay with HSC-2) was 39300 nM each time.
Consider `COc1ccc(C2CC(c3ccc(O)cc3)=NN2c2ccc(S(N)(=O)=O)cc2)cc1` (stereo unspecified), for which the Ki on Carbonic anhydrase 9 [2] is 53.5 nM; at Carbonic anhydrase 12, 6.2 nM. In addition, the CC50 (in assay [3]; in assay [4]; with HSC-3; in assay [5]; with Ca9-22; in the assay on HSC-2) was 39300 nM in each case.
Turning to `O=C(Nc1ccccc1)NS(=O)(=O)c1ccc(N2N=C(c3ccc(Br)cc3)CC2c2ccc(F)cc2)cc1` (stereo unspecified), in the assay with Mus musculus, the Activity was 16%.
`COc1ccc(C2CC(c3ccc(Cl)cc3)=NN2c2ccc(S(N)(=O)=O)cc2)c(OC)c1` (stereo unspecified) showed a Ki on Acetylcholinesterase of 37.7 nM.
`O=C(Nc1ccc(Cl)cc1)NS(=O)(=O)c1ccc(N2N=C(c3ccc(Br)cc3)CC2c2ccc(F)cc2)cc1` (stereo unspecified): the Activity with Mus musculus was found to be 16%.
In the case of `COc1ccc(C2=NN(C(=O)c3ccc(S(N)(=O)=O)cc3)C(c3ccc(OC)c(OC)c3)C2)c(OC)c1` (stereo unspecified), the Ki is 2670 nM on Carbonic anhydrase 1 [11] and 5.5 nM at Carbonic anhydrase 9 [12].
Turning to `CC(=O)N1N=C(c2ccc(OS(N)(=O)=O)cc2)CC1c1ccccc1Cl` (stereo unspecified), the Ki was 17.7 nM on Carbonic anhydrase 4, 14.8 nM on Carbonic anhydrase 9 [7], 0.4 nM at Carbonic anhydrase 2 [8] and 2460 nM on Carbonic anhydrase 1 [9].
